# Measurements from ChEMBL document CHEMBL4145687, “Novel Scaffolds for Dual Specificity Tyrosine-Phosphorylation-Regulated Kinase (DYRK1A) Inhibitors” (J Med Chem, 2018).
# Active and inactive are the calls of the source. The rule behind the calls is not given here.
# Experiments:
# [1] = target: T1, Dual specificity tyrosine-phosphorylation-regulated kinase 1A (Homo sapiens, UniProt Q13627); test: Inhibition of DYRK1A (unknown origin) assessed as remaining enzyme activity at 20 uM using DYRKtide as substrate by ATP regenerative NADH consuming assay
# [2] = target: T1, Dual specificity tyrosine-phosphorylation-regulated kinase 1A; test: Inhibition of human DYRK1A expressed in HEK293 cells assessed as compound concentration causing 1.5 fold […] by NFAT response element-driven luciferase reporter gene assay relative to basal level; assay type: cell-based
# [3] = target: Dual specificity protein kinase CLK2 (Homo sapiens) (UniProt P49760); test: Inhibition of human CLK2 expressed in bacterial expression system at 10 uM
# [4] = target: T1, Dual specificity tyrosine-phosphorylation-regulated kinase 1A; test: Inhibition of EGFP-tagged DYRK1A (unknown origin) expressed in human NCI-H1299 cells expressing FLAG-tagged tau assessed as reduction in tau T212 phosphorylation at 1 to 10 uM incubated for 2 hrs by Western blot analysis; assay type: cell-based
# [5] = target: T1, Dual specificity tyrosine-phosphorylation-regulated kinase 1A; test: Inhibition of DYRK1A (unknown origin) using DYRKtide as substrate by ATP regenerative NADH consuming assay
# [6] = target: Cyclin-dependent kinase 7 (Homo sapiens) (UniProt P50613); test: Inhibition of human CDK7 expressed in mammalian expression system at 10 uM
# [7] = target: Homeodomain-interacting protein kinase 1 (Homo sapiens) (UniProt Q86Z02); test: Inhibition of human HIPK1 expressed in mammalian expression system at 10 uM
# [8] = target: Homeodomain-interacting protein kinase 2 (Homo sapiens) (UniProt Q9H2X6); test: Inhibition of human HIPK2 expressed in mammalian expression system at 10 uM
# [9] = target: Glycogen synthase kinase-3 beta (Homo sapiens) (UniProt P49841); test: Inhibition of human GSK3beta expressed in mammalian expression system at 10 uM
# [10] = target: T2, Serine/threonine-protein kinase 17A (Homo sapiens) (UniProt Q9UEE5); test: Inhibition of human DRAK1 expressed in bacterial expression system at 10 uM
# T2 sequence (whole entry): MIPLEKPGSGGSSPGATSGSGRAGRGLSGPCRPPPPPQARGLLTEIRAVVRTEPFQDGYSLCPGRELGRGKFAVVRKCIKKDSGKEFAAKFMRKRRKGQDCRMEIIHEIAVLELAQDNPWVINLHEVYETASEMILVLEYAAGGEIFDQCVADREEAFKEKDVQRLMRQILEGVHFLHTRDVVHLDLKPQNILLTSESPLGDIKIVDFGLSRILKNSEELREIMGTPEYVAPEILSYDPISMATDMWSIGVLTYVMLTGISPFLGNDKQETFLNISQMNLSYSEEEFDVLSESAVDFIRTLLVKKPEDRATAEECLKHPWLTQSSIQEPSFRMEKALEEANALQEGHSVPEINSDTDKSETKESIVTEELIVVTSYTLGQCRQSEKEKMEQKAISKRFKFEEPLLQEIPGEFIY
# [11] = target: Mitogen-activated protein kinase 7 (Homo sapiens) (UniProt Q13164); test: Inhibition of human ERK5 expressed in bacterial expression system at 10 uM
# [12] = target: T1, Dual specificity tyrosine-phosphorylation-regulated kinase 1A; test: Inhibition of human DYRK1A expressed in HEK293 cells assessed as […] at 1 uM by NFAT response element-driven luciferase reporter gene assay relative to harmine; assay type: cell-based
# [13] = target: T3, Serine/threonine-protein kinase 17B (Homo sapiens) (UniProt O94768); test: Inhibition of human DRAK2 expressed in bacterial expression system at 10 uM
# T3 sequence (whole entry): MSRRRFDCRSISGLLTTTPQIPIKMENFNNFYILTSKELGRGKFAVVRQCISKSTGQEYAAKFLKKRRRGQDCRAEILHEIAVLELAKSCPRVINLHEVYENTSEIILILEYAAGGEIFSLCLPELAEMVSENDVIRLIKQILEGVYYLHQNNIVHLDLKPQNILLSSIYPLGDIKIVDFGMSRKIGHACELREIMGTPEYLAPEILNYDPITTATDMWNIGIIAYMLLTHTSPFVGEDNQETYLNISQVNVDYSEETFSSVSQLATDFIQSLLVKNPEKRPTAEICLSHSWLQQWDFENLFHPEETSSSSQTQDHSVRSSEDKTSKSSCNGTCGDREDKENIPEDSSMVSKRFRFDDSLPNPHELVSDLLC
# [14] = target: Tyrosine-protein kinase ABL1 (Homo sapiens) (UniProt P00519); test: Inhibition of human ABL1 at 10 uM
# [15] = target: Platelet-derived growth factor receptor alpha (Homo sapiens) (UniProt P16234); test: Inhibition of human PDGFRalpha expressed in mammalian expression system at 10 uM
# [16] = target: Platelet-derived growth factor receptor beta (Homo sapiens) (UniProt P09619); test: Inhibition of human PDGFRbeta expressed in bacterial expression system at 10 uM
# [17] = target: Dual specificity protein kinase CLK1 (Homo sapiens) (UniProt P49759); test: Inhibition of human CLK1 expressed in bacterial expression system at 1 uM
# [18] = target: Dual specificity tyrosine-phosphorylation-regulated kinase 1B (Homo sapiens) (UniProt Q9Y463); test: Inhibition of human DYRK1B expressed in bacterial expression system at 1 uM
# [19] = target: Glycogen synthase kinase-3 alpha (Homo sapiens) (UniProt P49840); test: Inhibition of human GSK3A expressed in bacterial expression system at 1 uM
# [20] = target: Dual specificity protein kinase CLK3 (Homo sapiens) (UniProt P49761); test: Inhibition of human CLK3 expressed in bacterial expression system at 1 uM
# [21] = target: T1, Dual specificity tyrosine-phosphorylation-regulated kinase 1A; test: Inhibition of human DYRK1A expressed in mammalian expression system at 1 uM
# [22] = target: Phosphatidylinositol 4-kinase beta (Homo sapiens) (UniProt Q9UBF8); test: Inhibition of human PIK4CB expressed in mammalian expression system at 1 uM
# [23] = target: Phosphatidylinositol 4,5-bisphosphate 3-kinase catalytic subunit gamma isoform (Homo sapiens) (UniProt P48736); test: Inhibition of human PIK3CG expressed in mammalian expression system at 1 uM
# [24] = target: Serine/threonine-protein kinase mTOR (Homo sapiens) (UniProt P42345); test: Inhibition of human mTOR expressed in mammalian expression system at 10 uM
# [25] = target: T1, Dual specificity tyrosine-phosphorylation-regulated kinase 1A; test: Inhibition of human DYRK1A expressed in HEK293 cells assessed as […] at 0.1 uM by NFAT response element-driven luciferase reporter gene assay relative to harmine; assay type: cell-based
# [26] = target: Glycogen synthase kinase-3 beta (Homo sapiens) (UniProt P49841); test: Inhibition of human GSK3beta expressed in mammalian expression system at 1 uM
# Chain of Dual specificity protein kinase CLK2 (Homo sapiens) (P49760 whole entry, looked up): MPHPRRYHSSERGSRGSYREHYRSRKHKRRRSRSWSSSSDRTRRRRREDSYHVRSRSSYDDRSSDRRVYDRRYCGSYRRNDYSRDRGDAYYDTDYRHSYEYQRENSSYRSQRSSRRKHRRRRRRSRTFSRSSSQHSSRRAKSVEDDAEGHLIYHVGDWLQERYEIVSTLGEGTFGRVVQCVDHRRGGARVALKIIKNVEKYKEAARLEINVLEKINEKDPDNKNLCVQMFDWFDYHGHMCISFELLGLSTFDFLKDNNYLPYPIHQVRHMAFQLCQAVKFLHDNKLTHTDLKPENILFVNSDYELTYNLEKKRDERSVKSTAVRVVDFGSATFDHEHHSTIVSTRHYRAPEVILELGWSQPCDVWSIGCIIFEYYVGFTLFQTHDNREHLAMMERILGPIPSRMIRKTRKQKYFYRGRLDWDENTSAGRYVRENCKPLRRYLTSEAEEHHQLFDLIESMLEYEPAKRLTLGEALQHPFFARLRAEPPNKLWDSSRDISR
# Chain of Glycogen synthase kinase-3 beta (Homo sapiens) (P49841 whole entry, looked up): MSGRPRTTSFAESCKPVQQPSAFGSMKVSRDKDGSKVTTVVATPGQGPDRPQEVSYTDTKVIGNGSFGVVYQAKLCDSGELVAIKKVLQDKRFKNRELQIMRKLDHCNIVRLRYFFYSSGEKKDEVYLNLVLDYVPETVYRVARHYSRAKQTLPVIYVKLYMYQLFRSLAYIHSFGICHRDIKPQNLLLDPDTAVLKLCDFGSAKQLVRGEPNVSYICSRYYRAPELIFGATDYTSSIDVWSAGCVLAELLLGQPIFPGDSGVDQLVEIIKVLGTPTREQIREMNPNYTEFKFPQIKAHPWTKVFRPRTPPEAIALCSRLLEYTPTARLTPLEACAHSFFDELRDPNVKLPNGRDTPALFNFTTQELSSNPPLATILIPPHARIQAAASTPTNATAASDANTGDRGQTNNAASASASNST
# Chain of Dual specificity tyrosine-phosphorylation-regulated kinase 1B (Homo sapiens) (Q9Y463 whole entry, looked up): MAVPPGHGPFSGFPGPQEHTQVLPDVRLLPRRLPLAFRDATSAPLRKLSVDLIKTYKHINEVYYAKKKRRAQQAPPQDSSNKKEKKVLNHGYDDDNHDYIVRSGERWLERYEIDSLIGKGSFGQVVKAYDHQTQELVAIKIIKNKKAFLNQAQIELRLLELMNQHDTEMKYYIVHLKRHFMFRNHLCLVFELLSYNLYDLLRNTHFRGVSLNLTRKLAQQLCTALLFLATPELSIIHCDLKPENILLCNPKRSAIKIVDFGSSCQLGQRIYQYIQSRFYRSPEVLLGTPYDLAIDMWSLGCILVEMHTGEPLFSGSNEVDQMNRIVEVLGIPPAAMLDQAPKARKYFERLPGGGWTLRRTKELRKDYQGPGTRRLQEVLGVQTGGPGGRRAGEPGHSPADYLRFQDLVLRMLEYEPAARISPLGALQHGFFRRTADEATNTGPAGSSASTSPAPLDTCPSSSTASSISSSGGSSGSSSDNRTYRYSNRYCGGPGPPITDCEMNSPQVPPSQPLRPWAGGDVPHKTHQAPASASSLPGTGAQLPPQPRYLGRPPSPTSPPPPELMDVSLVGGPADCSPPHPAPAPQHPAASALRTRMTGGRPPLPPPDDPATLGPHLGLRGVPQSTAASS
# Chain of Dual specificity protein kinase CLK3 (Homo sapiens) (P49761 whole entry, looked up): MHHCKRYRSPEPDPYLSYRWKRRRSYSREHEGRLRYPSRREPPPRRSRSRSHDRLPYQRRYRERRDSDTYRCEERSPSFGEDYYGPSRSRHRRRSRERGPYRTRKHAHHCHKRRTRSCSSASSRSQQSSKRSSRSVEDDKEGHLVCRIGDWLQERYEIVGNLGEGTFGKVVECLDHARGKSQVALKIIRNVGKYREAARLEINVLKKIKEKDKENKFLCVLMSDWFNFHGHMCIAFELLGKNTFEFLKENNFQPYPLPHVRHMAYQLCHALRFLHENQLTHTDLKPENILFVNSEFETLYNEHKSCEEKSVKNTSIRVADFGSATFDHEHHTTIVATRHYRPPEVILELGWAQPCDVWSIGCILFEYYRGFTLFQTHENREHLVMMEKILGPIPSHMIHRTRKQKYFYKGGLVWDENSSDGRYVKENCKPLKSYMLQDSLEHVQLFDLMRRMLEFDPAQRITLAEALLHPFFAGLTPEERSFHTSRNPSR
# Chain of Homeodomain-interacting protein kinase 1 (Homo sapiens) (Q86Z02 whole entry, looked up): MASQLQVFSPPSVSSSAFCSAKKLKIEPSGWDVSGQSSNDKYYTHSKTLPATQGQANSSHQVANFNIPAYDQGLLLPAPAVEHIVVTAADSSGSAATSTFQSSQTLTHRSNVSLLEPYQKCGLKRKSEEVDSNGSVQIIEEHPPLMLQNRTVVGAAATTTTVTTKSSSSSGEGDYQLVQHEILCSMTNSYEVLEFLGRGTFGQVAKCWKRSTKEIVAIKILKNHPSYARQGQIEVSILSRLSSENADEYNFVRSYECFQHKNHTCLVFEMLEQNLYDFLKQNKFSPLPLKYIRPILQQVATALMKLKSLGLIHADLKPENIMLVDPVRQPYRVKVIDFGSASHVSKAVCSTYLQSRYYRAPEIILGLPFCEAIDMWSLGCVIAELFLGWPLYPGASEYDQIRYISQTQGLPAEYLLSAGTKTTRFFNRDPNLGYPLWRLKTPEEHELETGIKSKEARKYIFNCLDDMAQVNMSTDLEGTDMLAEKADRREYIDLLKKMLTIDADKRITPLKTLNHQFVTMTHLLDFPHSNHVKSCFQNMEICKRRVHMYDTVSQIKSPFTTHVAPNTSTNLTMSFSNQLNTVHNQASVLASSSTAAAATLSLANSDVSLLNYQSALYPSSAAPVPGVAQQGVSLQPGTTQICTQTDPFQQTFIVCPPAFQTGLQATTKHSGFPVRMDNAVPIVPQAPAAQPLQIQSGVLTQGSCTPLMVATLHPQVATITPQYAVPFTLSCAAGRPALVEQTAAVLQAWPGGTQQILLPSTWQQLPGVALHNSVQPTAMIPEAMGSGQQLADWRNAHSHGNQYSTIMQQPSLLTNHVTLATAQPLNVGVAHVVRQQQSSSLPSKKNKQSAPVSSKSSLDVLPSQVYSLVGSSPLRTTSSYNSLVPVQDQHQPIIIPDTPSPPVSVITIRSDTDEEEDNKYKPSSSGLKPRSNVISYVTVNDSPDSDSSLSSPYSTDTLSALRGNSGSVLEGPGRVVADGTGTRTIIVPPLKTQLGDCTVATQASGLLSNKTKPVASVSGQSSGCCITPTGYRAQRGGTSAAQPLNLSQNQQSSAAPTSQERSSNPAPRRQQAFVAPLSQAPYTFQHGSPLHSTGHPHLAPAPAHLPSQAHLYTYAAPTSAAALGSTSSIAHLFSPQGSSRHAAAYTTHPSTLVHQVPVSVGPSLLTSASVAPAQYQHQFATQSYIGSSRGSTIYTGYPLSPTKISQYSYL
# Chain of Platelet-derived growth factor receptor beta (Homo sapiens) (P09619 whole entry): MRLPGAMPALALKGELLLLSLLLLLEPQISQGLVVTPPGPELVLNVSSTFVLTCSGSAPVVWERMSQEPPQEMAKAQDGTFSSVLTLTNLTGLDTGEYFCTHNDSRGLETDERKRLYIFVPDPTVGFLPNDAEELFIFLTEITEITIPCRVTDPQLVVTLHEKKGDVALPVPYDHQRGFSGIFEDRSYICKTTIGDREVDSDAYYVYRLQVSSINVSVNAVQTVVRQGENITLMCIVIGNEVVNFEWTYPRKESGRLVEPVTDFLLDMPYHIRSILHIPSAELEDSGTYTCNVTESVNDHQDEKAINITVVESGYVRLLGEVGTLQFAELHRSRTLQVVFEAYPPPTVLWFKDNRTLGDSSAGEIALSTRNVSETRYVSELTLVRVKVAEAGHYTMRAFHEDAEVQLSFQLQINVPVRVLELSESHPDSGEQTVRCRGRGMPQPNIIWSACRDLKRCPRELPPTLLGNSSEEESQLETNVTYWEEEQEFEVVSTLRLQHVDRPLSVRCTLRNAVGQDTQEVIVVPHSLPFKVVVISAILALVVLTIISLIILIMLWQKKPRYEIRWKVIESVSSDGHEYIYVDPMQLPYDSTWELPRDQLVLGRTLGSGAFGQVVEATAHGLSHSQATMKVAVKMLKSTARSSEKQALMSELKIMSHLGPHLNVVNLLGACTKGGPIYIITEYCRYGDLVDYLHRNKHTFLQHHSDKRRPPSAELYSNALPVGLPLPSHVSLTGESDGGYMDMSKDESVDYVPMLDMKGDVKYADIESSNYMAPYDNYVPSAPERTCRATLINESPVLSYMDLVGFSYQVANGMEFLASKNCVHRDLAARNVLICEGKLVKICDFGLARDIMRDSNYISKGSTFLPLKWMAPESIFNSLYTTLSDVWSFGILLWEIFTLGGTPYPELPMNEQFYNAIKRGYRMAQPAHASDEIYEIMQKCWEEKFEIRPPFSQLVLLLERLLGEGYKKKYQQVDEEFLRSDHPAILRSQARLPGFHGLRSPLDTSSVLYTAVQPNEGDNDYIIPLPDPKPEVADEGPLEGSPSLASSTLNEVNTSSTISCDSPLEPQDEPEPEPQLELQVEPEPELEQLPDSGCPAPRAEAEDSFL
# Chain of Cyclin-dependent kinase 7 (Homo sapiens) (P50613 whole entry): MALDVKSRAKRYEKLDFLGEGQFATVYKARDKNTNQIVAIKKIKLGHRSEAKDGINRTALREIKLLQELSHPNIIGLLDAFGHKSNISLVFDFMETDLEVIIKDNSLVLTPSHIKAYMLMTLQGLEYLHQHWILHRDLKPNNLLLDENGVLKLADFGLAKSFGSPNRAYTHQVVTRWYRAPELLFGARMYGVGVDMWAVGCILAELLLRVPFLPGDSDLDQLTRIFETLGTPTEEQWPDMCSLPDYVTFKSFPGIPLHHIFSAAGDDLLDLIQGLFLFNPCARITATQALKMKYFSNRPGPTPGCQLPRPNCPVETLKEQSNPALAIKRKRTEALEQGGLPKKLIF
Compound,Activity [1] [%],Activity [2],inhibition [3],inhibition [4],IC50 ([5]; read-out: IC50) [µM],Ki ([5]; read-out: Ki) [µM],further results
C=CC(=O)Nc1ccc(C(=O)c2sc(Nc3ccc(N4CCN(C)CC4)cc3OC)nc2N)cc1,4,inactive,Active,Dose-dependent effect,1.2,0.575,–
C=CC(=O)Nc1cccc(C(=O)c2sc(Nc3ccc(N4CCN(C)CC4)cc3)nc2N)c1,–,–,Active,Active,–,–,IC50 [5]: Nd(Insoluble); Ki [5]: Nd(Insoluble)
COc1ccc(N)cc1-c1cnc(N)c(C(=O)c2cccnc2)n1,24,5 to 10 µM,Active,Active,> 6,> 2.8,inhibition [6]: Active; inhibition [7]: Active; inhibition [8]: Active; inhibition [9]: Active
CN1C(=O)[C@H]2CCC[C@H]2N(C2CCCC2)c2nc(Nc3ccc(C(N)=O)cc3)ncc21,15,0.5 to 1 µM,–,Active,4.2,2.02,inhibition [10]: Active; inhibition [11]: Active; fold change (FC) [12]: 2; inhibition [13]: Active
O=C(NCCN1CCOCC1)Nc1cccc(-c2ccc3nc(NC(=O)C4CC4)sc3n2)c1,11,> 20 µM,Active,Active,3.5,1.68,inhibition [14]: Active; inhibition [15]: Active; inhibition [16]: Active
COc1cc(N2CCN(C)CC2)ccc1Nc1nc(N)c(C(=O)c2ccccc2)s1,1.3,10 to 20 µM,–,Dose-dependent effect,0.8,0.383,–

# Continued, in another order:
Activity [1] [%],Activity [2],inhibition [3],inhibition [4],IC50 ([5]; read-out: IC50) [µM],Ki ([5]; read-out: Ki) [µM],Compound,further results
0,5 to 10 µM,–,Dose-dependent effect,0.329,0.158,Nc1cccc(-c2cnc3[nH]cc(-c4cccnc4)c3c2)c1,–
0,1 to 5 µM,–,Dose-dependent effect,0.216,0.104,NS(=O)(=O)c1ccc(-c2cnc3[nH]cc(-c4cccnc4)c3c2)cc1,inhibition [2]: Dose-dependent effect
2,0.05 to 0.1 µM,–,Active,0.532,0.252,O=c1ccc2cnc3ccc(-c4cn[nH]c4)cc3c2n1-c1ccc(F)cc1C(F)(F)F,inhibition [17]: Active; inhibition [18]: Active; inhibition [19]: Active; inhibition [20]: Active; inhibition [21]: Active; inhibition [22]: Active; inhibition [23]: Active; inhibition [24]: Active; fold change (FC) [25]: 2; inhibition [26]: Active
